Laboratory results as given in the kinase profiling compilation of Christmann-Franck et al. (2016).

Columns and labels:
Test in all cases: KINOMEscan competition binding
[1] = system: ABL1 (human), P00519 [F317I]; settings: compound 10.0 µM
[2] = system: ABL1 (human), P00519 [F317L]; settings: compound 10.0 µM
[3] = molecular target: CAMKK1 (human) (UniProt Q8N5S9); settings: compound 10.0 µM
[4] = molecular target: CSF1R (human) (UniProt P07333)
[5] = molecular target: DCLK1 (human) (UniProt O15075)
DCLK1 (human), sequence (O15075 whole entry, looked up): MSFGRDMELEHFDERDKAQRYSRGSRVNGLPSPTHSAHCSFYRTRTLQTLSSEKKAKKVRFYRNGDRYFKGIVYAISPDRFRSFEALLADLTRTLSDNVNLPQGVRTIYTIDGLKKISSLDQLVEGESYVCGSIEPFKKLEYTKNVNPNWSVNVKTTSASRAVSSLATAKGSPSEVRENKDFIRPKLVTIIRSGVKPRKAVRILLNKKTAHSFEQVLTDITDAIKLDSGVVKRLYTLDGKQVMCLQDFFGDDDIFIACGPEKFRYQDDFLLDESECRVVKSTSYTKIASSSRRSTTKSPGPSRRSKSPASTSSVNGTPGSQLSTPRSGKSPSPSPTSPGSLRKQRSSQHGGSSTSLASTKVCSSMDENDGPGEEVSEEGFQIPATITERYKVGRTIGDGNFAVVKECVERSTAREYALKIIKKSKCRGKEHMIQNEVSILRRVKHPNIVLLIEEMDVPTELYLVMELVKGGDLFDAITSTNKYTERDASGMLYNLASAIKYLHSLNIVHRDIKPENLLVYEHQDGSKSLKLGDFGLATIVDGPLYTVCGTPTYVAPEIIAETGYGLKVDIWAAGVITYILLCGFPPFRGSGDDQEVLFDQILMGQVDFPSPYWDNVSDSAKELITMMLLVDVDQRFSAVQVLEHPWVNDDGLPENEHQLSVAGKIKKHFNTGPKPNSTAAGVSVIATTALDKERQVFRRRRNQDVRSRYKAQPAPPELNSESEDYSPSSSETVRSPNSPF

[6] = molecular target: DCLK2 (human) (UniProt Q8N568)
DCLK2 (human), sequence (Q8N568 whole entry, looked up): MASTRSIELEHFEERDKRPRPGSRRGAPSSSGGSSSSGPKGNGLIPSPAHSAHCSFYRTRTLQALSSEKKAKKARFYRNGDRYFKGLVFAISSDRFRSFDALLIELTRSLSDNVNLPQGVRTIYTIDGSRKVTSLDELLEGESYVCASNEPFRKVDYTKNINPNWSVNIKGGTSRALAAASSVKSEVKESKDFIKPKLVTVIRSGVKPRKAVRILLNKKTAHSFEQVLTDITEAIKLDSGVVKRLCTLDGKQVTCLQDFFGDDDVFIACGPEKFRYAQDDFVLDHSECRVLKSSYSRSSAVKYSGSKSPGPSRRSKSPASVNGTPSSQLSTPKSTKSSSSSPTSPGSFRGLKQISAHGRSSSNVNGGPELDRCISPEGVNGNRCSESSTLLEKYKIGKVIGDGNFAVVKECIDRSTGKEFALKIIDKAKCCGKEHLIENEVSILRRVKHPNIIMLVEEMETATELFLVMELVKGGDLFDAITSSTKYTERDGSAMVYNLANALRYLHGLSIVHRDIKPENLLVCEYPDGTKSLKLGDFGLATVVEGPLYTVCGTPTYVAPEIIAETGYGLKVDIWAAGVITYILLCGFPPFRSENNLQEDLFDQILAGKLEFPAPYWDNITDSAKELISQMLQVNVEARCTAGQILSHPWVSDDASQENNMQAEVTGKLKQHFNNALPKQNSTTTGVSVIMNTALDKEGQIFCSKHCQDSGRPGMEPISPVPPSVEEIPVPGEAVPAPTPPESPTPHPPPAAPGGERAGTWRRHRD

[7] = molecular target: FGFR4 (human) (UniProt P22455); settings: compound 10.0 µM
[8] = molecular target: FRK (human) (UniProt P42685)
[9] = molecular target: GAK (human) (UniProt O14976)
GAK (human), sequence (O14976 whole entry, looked up): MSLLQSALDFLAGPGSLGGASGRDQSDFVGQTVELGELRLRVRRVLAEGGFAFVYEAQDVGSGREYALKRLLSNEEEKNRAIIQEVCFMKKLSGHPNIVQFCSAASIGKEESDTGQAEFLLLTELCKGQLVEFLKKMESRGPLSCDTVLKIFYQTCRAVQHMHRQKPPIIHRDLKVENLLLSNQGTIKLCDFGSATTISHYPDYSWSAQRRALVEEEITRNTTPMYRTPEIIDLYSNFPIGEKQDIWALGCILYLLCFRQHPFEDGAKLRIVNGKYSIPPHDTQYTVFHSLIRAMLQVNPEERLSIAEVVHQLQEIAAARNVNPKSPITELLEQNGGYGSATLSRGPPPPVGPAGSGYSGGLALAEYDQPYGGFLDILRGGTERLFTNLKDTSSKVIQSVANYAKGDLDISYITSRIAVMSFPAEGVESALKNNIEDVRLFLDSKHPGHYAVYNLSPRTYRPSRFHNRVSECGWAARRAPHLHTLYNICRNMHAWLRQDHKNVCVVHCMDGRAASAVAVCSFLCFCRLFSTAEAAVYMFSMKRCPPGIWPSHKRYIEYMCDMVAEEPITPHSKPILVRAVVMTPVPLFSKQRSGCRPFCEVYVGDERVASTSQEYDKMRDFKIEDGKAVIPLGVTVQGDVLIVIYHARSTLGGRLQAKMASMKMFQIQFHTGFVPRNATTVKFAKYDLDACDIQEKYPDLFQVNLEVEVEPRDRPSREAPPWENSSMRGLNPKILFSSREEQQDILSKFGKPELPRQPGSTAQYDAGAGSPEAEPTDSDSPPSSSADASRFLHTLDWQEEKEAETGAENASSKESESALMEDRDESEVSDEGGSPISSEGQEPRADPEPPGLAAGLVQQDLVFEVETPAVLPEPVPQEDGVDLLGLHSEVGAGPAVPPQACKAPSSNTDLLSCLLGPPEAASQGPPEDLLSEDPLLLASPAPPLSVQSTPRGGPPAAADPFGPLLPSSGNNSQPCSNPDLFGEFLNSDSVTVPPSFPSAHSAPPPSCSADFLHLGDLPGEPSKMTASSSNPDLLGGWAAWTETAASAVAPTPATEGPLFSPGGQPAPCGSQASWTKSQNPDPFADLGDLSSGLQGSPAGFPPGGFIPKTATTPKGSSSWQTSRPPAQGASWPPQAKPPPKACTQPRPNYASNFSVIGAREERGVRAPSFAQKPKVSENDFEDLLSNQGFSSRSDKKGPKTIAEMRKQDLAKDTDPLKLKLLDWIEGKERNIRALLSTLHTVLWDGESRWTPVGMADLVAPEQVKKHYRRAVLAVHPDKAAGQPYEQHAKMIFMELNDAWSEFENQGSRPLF

[10] = molecular target: KIT (human) (UniProt P10721); settings: compound 10.0 µM
[11] = system: KIT (human), P10721 [V559D]; settings: compound 10.0 µM
[12] = molecular target: MAPK7 (human) (UniProt Q13164)
MAPK7 (human), sequence (Q13164 whole entry, looked up): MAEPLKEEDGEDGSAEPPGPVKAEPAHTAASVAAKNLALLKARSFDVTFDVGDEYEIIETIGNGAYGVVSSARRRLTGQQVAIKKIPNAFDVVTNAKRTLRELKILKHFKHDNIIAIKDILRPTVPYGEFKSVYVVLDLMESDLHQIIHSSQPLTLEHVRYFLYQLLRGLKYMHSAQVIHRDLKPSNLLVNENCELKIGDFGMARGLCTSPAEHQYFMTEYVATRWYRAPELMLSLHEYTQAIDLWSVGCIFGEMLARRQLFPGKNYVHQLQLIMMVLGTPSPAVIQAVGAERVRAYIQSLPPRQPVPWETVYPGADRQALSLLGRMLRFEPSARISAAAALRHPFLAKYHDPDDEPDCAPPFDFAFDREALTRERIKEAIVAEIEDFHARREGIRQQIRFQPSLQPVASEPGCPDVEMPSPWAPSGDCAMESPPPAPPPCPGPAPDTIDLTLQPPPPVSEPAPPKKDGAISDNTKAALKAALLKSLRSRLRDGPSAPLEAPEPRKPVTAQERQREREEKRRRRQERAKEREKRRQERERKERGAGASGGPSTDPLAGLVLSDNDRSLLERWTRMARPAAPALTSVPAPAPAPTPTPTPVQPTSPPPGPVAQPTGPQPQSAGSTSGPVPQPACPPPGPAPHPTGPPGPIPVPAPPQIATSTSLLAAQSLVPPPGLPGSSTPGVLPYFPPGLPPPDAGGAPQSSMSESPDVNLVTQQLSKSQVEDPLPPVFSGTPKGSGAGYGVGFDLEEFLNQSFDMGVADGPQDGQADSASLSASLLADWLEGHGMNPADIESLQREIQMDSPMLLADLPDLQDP

[13] = molecular target: MKNK2 (human) (UniProt Q9HBH9); settings: compound 10.0 µM
[14] = molecular target: MYLK4 (human) (UniProt Q86YV6); settings: compound 10.0 µM
[15] = molecular target: NUAK1 (human) (UniProt O60285); settings: compound 10.0 µM
[16] = molecular target: PDGFRB (human) (UniProt P09619); settings: compound 10.0 µM
[17] = molecular target: PLK4 (human) (UniProt O00444); settings: compound 10.0 µM
[18] = molecular target: PRKD1 (human) (UniProt Q15139); settings: compound 10.0 µM
[19] = molecular target: PRKD2 (human) (UniProt Q9BZL6); settings: compound 10.0 µM
[20] = molecular target: PRKD3 (human) (UniProt O94806); settings: compound 10.0 µM
[21] = molecular target: PTK6 (human) (UniProt Q13882)
PTK6 (human), sequence (Q13882 whole entry, looked up): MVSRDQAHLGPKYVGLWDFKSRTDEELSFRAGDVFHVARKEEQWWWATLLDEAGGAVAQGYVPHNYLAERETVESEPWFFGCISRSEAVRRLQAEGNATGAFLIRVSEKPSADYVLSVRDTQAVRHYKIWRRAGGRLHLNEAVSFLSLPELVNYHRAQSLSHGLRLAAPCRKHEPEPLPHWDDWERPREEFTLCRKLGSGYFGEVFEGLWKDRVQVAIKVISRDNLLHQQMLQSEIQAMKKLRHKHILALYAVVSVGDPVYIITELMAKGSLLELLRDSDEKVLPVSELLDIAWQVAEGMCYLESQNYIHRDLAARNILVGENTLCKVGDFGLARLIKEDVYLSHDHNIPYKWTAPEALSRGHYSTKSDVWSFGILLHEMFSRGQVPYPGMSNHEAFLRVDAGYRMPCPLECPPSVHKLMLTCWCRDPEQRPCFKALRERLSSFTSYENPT

[22] = molecular target: RIPK2 (human) (UniProt O43353); settings: compound 10.0 µM
[23] = molecular target: ROS1 (human) (UniProt P08922); settings: compound 10.0 µM
[24] = molecular target: RPS6KA1 KD2 (human) (UniProt Q15418); settings: compound 10.0 µM
[25] = molecular target: RPS6KA6 KD2 (human) (UniProt Q9UK32); settings: compound 10.0 µM
[26] = molecular target: SGK110 (human) (UniProt P0C264); settings: compound 10.0 µM
[27] = molecular target: SRMS (human) (UniProt Q9H3Y6); settings: compound 10.0 µM
[28] = molecular target: TNK1 (human) (UniProt Q13470)
[29] = molecular target: TNK2 (human) (UniProt Q07912); settings: compound 10.0 µM

CSF1R (human), sequence (P07333 whole entry, looked up): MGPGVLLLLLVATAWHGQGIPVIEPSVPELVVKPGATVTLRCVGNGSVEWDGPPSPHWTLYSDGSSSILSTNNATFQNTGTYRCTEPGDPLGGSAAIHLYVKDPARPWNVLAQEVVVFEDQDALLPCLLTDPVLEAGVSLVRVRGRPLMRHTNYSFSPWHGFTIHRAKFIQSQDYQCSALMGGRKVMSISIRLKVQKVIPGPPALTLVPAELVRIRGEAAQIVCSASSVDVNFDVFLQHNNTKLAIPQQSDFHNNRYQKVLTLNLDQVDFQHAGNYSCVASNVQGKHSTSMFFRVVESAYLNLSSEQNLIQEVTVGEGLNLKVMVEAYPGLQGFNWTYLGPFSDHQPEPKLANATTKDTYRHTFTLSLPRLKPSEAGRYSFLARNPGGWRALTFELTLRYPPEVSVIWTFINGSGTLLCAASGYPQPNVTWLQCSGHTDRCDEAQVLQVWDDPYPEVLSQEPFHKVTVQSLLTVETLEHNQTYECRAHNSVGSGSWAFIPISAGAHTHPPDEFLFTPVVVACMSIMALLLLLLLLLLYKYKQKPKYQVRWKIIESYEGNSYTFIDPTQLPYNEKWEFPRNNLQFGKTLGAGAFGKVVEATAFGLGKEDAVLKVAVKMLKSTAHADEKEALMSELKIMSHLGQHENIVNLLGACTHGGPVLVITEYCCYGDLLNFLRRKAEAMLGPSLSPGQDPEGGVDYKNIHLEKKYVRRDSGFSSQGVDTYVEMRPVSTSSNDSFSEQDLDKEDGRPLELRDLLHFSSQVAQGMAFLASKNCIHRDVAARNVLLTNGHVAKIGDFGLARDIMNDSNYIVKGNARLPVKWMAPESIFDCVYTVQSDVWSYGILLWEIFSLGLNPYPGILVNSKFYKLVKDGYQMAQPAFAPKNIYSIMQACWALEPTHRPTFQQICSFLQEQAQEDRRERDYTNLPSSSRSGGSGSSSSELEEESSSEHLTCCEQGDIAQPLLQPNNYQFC

kinase still bound, per cent of control [1]: 3.9%
kinase still bound, per cent of control [2]: 8%
kinase still bound, per cent of control [3]: 28%
Kd [4]: 330 nM
kinase still bound, per cent of control ([4]; compound 10.0 µM): 1%
Kd [5]: 280 nM
kinase still bound, per cent of control ([5]; compound 10.0 µM): 0.9%
Kd [6]: 690 nM
kinase still bound, per cent of control ([6]; compound 10.0 µM): 1.4%
kinase still bound, per cent of control [7]: 34%
Kd [8]: 96 nM
kinase still bound, per cent of control ([8]; compound 10.0 µM): 0.8%
Kd [9]: 270 nM
kinase still bound, per cent of control ([9]; compound 10.0 µM): 3.8%
kinase still bound, per cent of control [10]: 12%
kinase still bound, per cent of control [11]: 22%
Kd [12]: 670 nM
kinase still bound, per cent of control ([12]; compound 10.0 µM): 0.5%
kinase still bound, per cent of control [13]: 27%
kinase still bound, per cent of control [14]: 2.2%
kinase still bound, per cent of control [15]: 29%
kinase still bound, per cent of control [16]: 29%
kinase still bound, per cent of control [17]: 8.2%
kinase still bound, per cent of control [18]: 21%
kinase still bound, per cent of control [19]: 22%
kinase still bound, per cent of control [20]: 32%
Kd [21]: 37 nM
kinase still bound, per cent of control ([21]; compound 10.0 µM): 0.15%
kinase still bound, per cent of control [22]: 24%
kinase still bound, per cent of control [23]: 17%
kinase still bound, per cent of control [24]: 21%
kinase still bound, per cent of control [25]: 14%
kinase still bound, per cent of control [26]: 31%
kinase still bound, per cent of control [27]: 18%
Kd [28]: 110 nM
kinase still bound, per cent of control ([28]; compound 10.0 µM): 2.4%
kinase still bound, per cent of control [29]: 0.3%
SMILES: COc1cc(N2CCN(C)CC2)ccc1Nc1ncc2c(n1)N(C)c1ccccc1C(=O)N2
